Holding throughout (assay): DTP human tumour cell line panel, 48 h
Experiment [1] deals with PC-3 prostate.
Experiment [2] concerns COLO 205 colon.
The subject of experiment [3] is MALME-3M melanoma.
The test system of experiment [4] is SNB-19 CNS.
The test system of experiment [5] is HCT-15 colon.
Experiment [6] relates to LOX IMVI melanoma.
Experiment [7] concerns HS 578T breast.
For experiment [8], the system named is HL-60(TB) leukemia.
The test system of experiment [9] is U251 CNS.
In experiment [10] the test system is NCI-H460 lung.

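Cells were grown in 96-well plates and exposed to each compound for 48 hours at five concentrations; endpoints were interpolated linearly between bracketing concentrations, or set to the highest concentration if not reached. Here, GI50 denotes the concentration required for 50% inhibition of growth. Definition used: TGI = concentration required for complete inhibition of growth.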 Where only a bound is given, the exact number is not on record here.

For orientation: TGI means the concentration giving total growth inhibition. Read a low TGI as more potent growth arrest. `CCCC(=O)Nc1cc2c3c(c1)CCCN3CCC2`: the TGI in experiment [1], in [2], in experiment [3], in [4], in [5] and in experiment [6] was above 10 µM each time. Moreover, the TGI in [7], in experiment [8] and in [9] was above 10 µM each time.

For orientation: GI50 means the concentration giving 50% growth inhibition. For the compound `Cn1cc(-c2csc(-c3c[nH]c4ccc(F)cc34)n2)c2cnccc21`, the GI50 in [1] is 1.69 µM; in experiment [3] it was 1.94 µM; in experiment [4] it was 1.95 µM; in experiment [5], 1.67 µM; in experiment [7] it was 2.26 µM; in experiment [10], 1.99 µM. The GI50 in experiment [8] is 2.19 µM; in experiment [9], 1.87 µM. In addition, the TGI in experiment [1] was 3.61 µM; in [3] it was 3.46 µM; in experiment [4], 3.52 µM; in experiment [5], 3.36 µM; in experiment [7] it was 5.08 µM; in [10] it was 3.95 µM. Further, the TGI in [8] stood at 4.32 µM; in experiment [9], 3.4 µM.

As to `Clc1ccc2[nH]cc(-c3nnnn3-c3ccccc3)c2c1`, the GI50 in [1] was 18.6 µM; in [2], 23.1 µM; in [3] it was 13.5 µM; in experiment [4] it was 38.4 µM; in experiment [5], 12 µM; in [6], 10.5 µM. The GI50 in experiment [7] is 15.4 µM; in [10] it was 20.3 µM; in [9] it was 14 µM. Further, the TGI in experiment [1] was above 59.5 µM; in [2], above 57.8 µM; in [3], above 56.5 µM; in experiment [4] it was above 100 µM; in [5] it was above 100 µM; in [6], above 53.5 µM. For the same compound, the TGI in experiment [7] is above 60.8 µM; in experiment [10], above 100 µM; in experiment [9] it was above 78.9 µM.

Regarding `Nc1nc(/C=C\c2ccc([N+](=O)[O-])s2)nc(N2CCCC2)n1`, the GI50 in experiment [1] is 3.92 µM; in [2] it was 0.524 µM; in experiment [3], 12.3 µM; in [4], 3.01 µM; in [6], 0.198 µM; in experiment [7] it was 12.9 µM. Moreover, the GI50 in experiment [10] was 3.68 µM; in experiment [8], 5.39 µM. Further, the TGI was determined as 21.9 µM in experiment [1]; 3.5 µM in [2]; 28.5 µM in [3]; 21.6 µM in experiment [4]; 2.41 µM in experiment [6]; 59.7 µM in [7]. Further, the TGI came to 16.1 µM in experiment [10] and 25.3 µM in experiment [8].

On to `COc1ccc(Nc2nnc(-c3cc(O)ccc3O)s2)cc1`, for which the GI50 is 34.4 µM in experiment [1]; above 50 µM in [2]; above 50 µM in experiment [4]; above 50 µM in experiment [5]; 25.7 µM in [6]; 19.7 µM in [7]. The GI50 in experiment [10] is 40.4 µM; in [8], 4.57 µM; in experiment [9], 16.7 µM. Also, the TGI in [1], in experiment [2], in experiment [4], in [5], in experiment [6] and in [7] was above 50 µM in each case. For the same compound, the TGI in experiment [10], in experiment [8] and in experiment [9] was above 50 µM throughout.

Turning to `O=C1/C(=C/c2cccc(Cl)c2Cl)N=C(c2ccccc2)N1C1CC1`, the GI50 in [1] was 8.85 µM; in [2], 15.1 µM; in experiment [4], 12.7 µM; in [5], 12.3 µM; in experiment [6], 7.11 µM; in experiment [7] it was 16.6 µM. In addition, the GI50 in experiment [10] is 15.3 µM; in experiment [8] it was 15.6 µM; in experiment [9], 12.6 µM. The TGI was 17.2 µM in experiment [1]; above 50 µM in experiment [2]; 33.2 µM in experiment [4]; 39 µM in [5]; 17.4 µM in [6]; 39.5 µM in experiment [7]. Further, the TGI in experiment [10] is above 50 µM; in experiment [8], 41.4 µM; in experiment [9], 34.7 µM.

Consider `COc1cc2c(c(OC)c1OC)-c1ccc(SC)c(=O)cc1C(NC=O)CC2` (configuration not stated), for which the TGI is above 100 µM in experiment [1]; below 0.01 µM in [2]; above 83 µM in [3]; above 100 µM in experiment [4]; above 37.4 µM in experiment [5]; above 41.1 µM in experiment [6]. Also, the TGI was above 75.5 µM in [7], 0.0492 µM in experiment [8] and 5.68 µM in experiment [9].

Regarding `C=C(C)[C@@H]1CC[C@]2(C)[C@H](CC=C3[C@@H]4CC(C)(C)CC[C@]4(C(N)=O)CC[C@]32C)[C@@]1(C)CCC#N`, the GI50 in experiment [1] was 2.37 µM; in experiment [2], 2.6 µM; in experiment [3], 2.24 µM; in experiment [4], 4.05 µM; in experiment [5], 3.14 µM; in experiment [6], 3.69 µM. The values for the GI50 in experiment [7], in experiment [10] and in experiment [9] were 3.28 µM, 2.93 µM and 4.35 µM, respectively. The TGI in [1] was above 100 µM; in experiment [2], 7.36 µM; in [3] it was 5.91 µM; in experiment [4], above 100 µM; in [5], above 100 µM; in experiment [6], above 100 µM. For the same compound, the values for the TGI in [7], in [10] and in [9] were 54.6 µM, 8.62 µM and above 100 µM, respectively.

On to `O=C(Nc1ccncc1)C(=O)c1cn(S(=O)(=O)c2ccc(F)cc2)c2ccccc12`, for which the GI50 is 4.45 µM in experiment [1]; 24.7 µM in experiment [2]; 1.61 µM in [3]; 19.5 µM in experiment [4]; 1.41 µM in experiment [5]; 2.22 µM in [6]. The GI50 in [7] was 3.65 µM; in [10] it was 16.3 µM; in experiment [9], 3.48 µM. The TGI is above 100 µM in experiment [1]; above 100 µM in experiment [2]; 88.8 µM in experiment [3]; above 100 µM in [4]; above 100 µM in experiment [5]; above 100 µM in experiment [6]. The TGI is 82.1 µM in experiment [7], above 100 µM in experiment [10] and above 100 µM in experiment [9].

On to `COc1ccc2c(c1)C(=O)c1c-2c(N2CCN(C(=O)CNCCNCCO)CC2)nc2ccccc12`, for which the GI50 in [1] was 5.57 µM; in [2], 2.17 µM; in experiment [3] it was 2.55 µM; in [4], 11.1 µM; in experiment [5], 7.81 µM; in experiment [6] it was 2.18 µM. The GI50 in experiment [7] was 5.92 µM; in experiment [10], 1.94 µM; in experiment [9], 4.08 µM. Besides, the TGI in experiment [1] stood at 18.7 µM; in experiment [2] it was 4.19 µM; in [3] it was 5.97 µM; in experiment [4], 28.4 µM; in experiment [5], 22.4 µM; in experiment [6], 4.72 µM. Also, the concentration for total growth inhibition (TGI) in [7] came out at 25.7 µM; in experiment [10] it was 4.14 µM; in experiment [9] it was 16.3 µM.

Take `CC(C)Oc1ccc2cc(-c3nn(CC4CCNCC4)c4ncnc(N)c34)ccc2c1`: the GI50 in experiment [1] was 12 µM; in experiment [2] it was 3.39 µM; in experiment [4], 12.7 µM; in experiment [5], 3.74 µM; in experiment [6], 16.7 µM; in experiment [7], 9.4 µM. In addition, the GI50 is 14.9 µM in experiment [10], 6.45 µM in [8] and 9.02 µM in experiment [9]. The TGI in [1] amounted to 25.8 µM; in [2], 13.2 µM; in experiment [4] it was 26 µM; in experiment [5], 15.8 µM; in experiment [6], 33.8 µM; in [7] it was 32.2 µM. For the same compound, the values for the total growth inhibition concentration (TGI) in experiment [10], in experiment [8] and in [9] were 28.5 µM, 20.6 µM and 21.7 µM, respectively.

For the compound `COc1ccc2[nH]cc(C3(c4c[nH]c5ccc(OC)cc45)C(=O)Nc4ccc(F)cc43)c2c1`, the GI50 in experiment [1] is 3.13 µM; in experiment [2], 1.69 µM; in experiment [3] it was 2.44 µM; in experiment [4], 3.28 µM; in experiment [5], 4.12 µM; in experiment [6], 1.65 µM. For the same compound, the GI50 in experiment [7] is 3.13 µM; in experiment [10], 2.3 µM; in experiment [9], 2.58 µM. Also, the TGI in [1] stood at 16.5 µM; in [2] it was 3.05 µM; in experiment [3] it was 22.4 µM; in experiment [4], 14.6 µM; in experiment [5], 20.2 µM; in experiment [6], 3.26 µM. Also, the values for the TGI in experiment [7], in experiment [10] and in [9] were 14.8 µM, 5.17 µM and 8.83 µM, respectively.

`CO/N=C(\COc1ccc2c(c1)oc(=O)c1cc(OC)ccc12)c1ccc(OC)cc1`: the GI50 in experiment [1], in experiment [2], in [3], in [4], in experiment [5] and in experiment [6] was above 100 µM in each case. Further, the GI50 in experiment [7], in experiment [10] and in experiment [9] was above 100 µM in each case. Also, the TGI in experiment [1], in experiment [2], in experiment [3], in experiment [4], in [5] and in experiment [6] was above 100 µM each time. The TGI in experiment [7], in experiment [10] and in experiment [9] was above 100 µM throughout.
